Results reported in patent US20130136722A1, “Methods of Ex Vivo Expansion of Blood Progenitor Cells, and Generation of Composite Grafts” (The Board of Trustees of The University of Illinois, priority 2011, published 2013).

Tests used:
Type in all cases: cell-based, human
[1] = tested on: promoter CpG sites (GATA1, S100A8, Cyp11A1); test: Pyrosequencing of promoter CpG sites of genes in expanded CD34+ cells; settings: FIG. 5C
Procedure: DNA methylation analysis was performed by EpigenDx (Worcester, Mass.) using quantitative pyrosequencing and the PSQ-HS96 system according to standard procedures (Warren et al., 2010, Cell Stem Cell. 7: 618-630). Primers were developed for the CpG sites near the promoter area as detailed in Table 3. Briefly, genomic DNA was isolated from primary or CMA expanded enriched CD34^+ cells using the Blood and Cell Culture DNA kit (Qiagen, Valencia Calif.). Genomic DNA was bisulfite treated by an EZ Methylation Kit (Zymo Research, Irvine, Calif.), and biotinylated gene specific primers or long interspersed nucleotide element 1 (LINE-1) primers were used to amplify regions of interest for analysis as described (Bhatia et al., 1997, J Exp Med. 186: 619-624).
Genomic DNA was isolated from primary, 5azaD/TSA or VPA expanded CD34^+ cells following culture using the Blood and Cell Culture DNA kit (Qiagen, Valencia Calif.). Genomic DNA was bisulfite treated by an EZ Methylation Kit (Zymo Research, Irvine, Calif.).

[2] = tested on: genes implicated in HSC self-renewal, differentiation, expansion and maintenance; test: Real time quantitative PCR of gene transcripts in re-isolated expanded CD34+ cells
Procedure: RNA preparation and real time quantative PCR assays were performed using SYBR green dye (Life Technologies; Carlsbad, Calif.) and an ABI 7500 Fast Real-Time PCR system (Life Technologies) were used to quantitate gene expression in reverse-transcribed mRNA as described (Araki et al., 2007, Id.). Gene expression was calculated by relative quantitation, and all results were normalized to expression of GAPDH.
To investigate whether treating cells with CMA altered gene expression, transcript levels of several genes associated with hematopoietic stem cell (HSC) self-renewal and differentiation were compared in unmanipulated primary CD34^+ cells (day 0) and CD34^+ cells expanded in the presence or absence of CMA (5azaD/TSA) during ex vivo culture. […] In the absence of 5azaD/TSA treatment, transcript levels of these genes were reduced over the course of 9 days of culture, correlating well with poor in vivo hematopoietic reconstitution capacity of untreated cells compared to unmanipulated primary or 5azaD/TSA expanded CD34^+ cells. […] In addition, transcript levels of CDK inhibitor P21, which regulates the G1/S transition of the cell cycle, was reduced in CD34^+ cells expanded in the absence of CMAs, but was not reduced in 5azaD/TSA expanded cells (p=0.06). Reduced P21 levels are generally associated with shorter G1/S transition and faster rate of cell divisions. […] This was also consistent with previous results showing membrane tracking dye as well as bromodeoxyuridine (BrdU) pulse chase assays of CD34^+CD90^+ cells during expansion culture (Araki et al., 2007, Blood 109: 3570-78).

[3] = tested on: histone H4 acetylation of gene promoter sites; test: Chromatin immunoprecipitation (ChIP) assay with anti-acetyl-Histone H4 antibody; settings: FIG. 6B
Procedure: The ChIP assay was carried out using a commercial Assay kit using the manufacturer's protocol (Millipore; Billerica, Mass.) as described (Sankar et al., 2008, Oncogene 27: 5717-5728). Briefly, after 72 hours of culture CD34^+ cells were crosslinked with formaldehyde and the cell pellet was lysed and sonicated to produce genomic fragments and immunoprecipitated using anti-acetyl-Histone H4 antibody (Millipore). Amplified PCR fragments were then analyzed on a 1.2% agarose gel.
In order to examine whether the alteration of gene expression observed in CD34^+ cells during ex vivo expansion culture with CMA was due to changes in histone acetylation, acetylation of histone H4 was analyzed for several gene promoter sites including HoxB4, Bmi1, GATA2, PU.1, as well as GAPDH as a control. Standard chromatin immunoprecipitation (ChIP) assays were used employing an antibody specific to acetylated histone H4 as described previously (Sankar et al., 2008, Oncogene 27:5717-28). […] More promoter fragments for Bmi1, HoxB4, and GATA2, and less fragments for PU.1 were amplified in 5azaD/TSA expanded CD34^+ cells as compared to control and VPA-expanded CD34^+ cells (FIG. 6B).

LTB4 = LTB4 in conditioned media by AChE competitive ELISA; settings: day 9 of expansion culture; FIG. 4E
Procedure: The concentration of LTB4 in conditioned media was measured by an acetylcholine esterase competitive enzyme immunoassay following the manufacturer's instructions (Cayman Chemical Co. Ann Arbor, Mich.). Absorbance at 405 nm was read using ELx 800, instrument (Bio Tek Instruments Inc.). Results were calculated using mean values of triplicate wells with standard errors (SE).

CCCC(CCC)C(=O)O [VPA, valproic acid]
methylation levels of S100A8 and Cyp11A1 gene promoter sites [1]: almost completely lacked any changes in methylation | methylation of the GATA1 gene promoter [1]: minimal demethylation | transcript levels of Alox5 in contrast to CD34+ cells expanded in 5azaD/TSA [2]: significantly higher | transcript levels of S100A8 and Alox5 in contrast to controls ([2]; FIGS. 5A, 5B): increased | transcript levels of GATA1 compared with control cultures ([2]; day 3, FIG. 3B): significantly increased | histone H4 acetylation of the promoter regions of HoxB4, Bmi1 and GATA2 genes in contrast to control cultures ([3]; CD34+ cells after 72 hours of culture): Increased histone H4 acetylation | levels of histone H4 acetylation for Bmi1 and HoxB4 genes compared to control cultures [3]: intermediate levels | level of leukotriene B4 (LTB4) in conditioned medium (LTB4): increased compared to control
